Values quoted from earlier work in US20220346436A1, “ORALLY DISSOLVING FILMS” (NICOVENTURES TRADING LIMITED, priority 2021, published 2022).

How the values were obtained:
[1] = water / aqueous environment (e.g., saliva)
[2] = when isolated; isomerises to trans-bixin

solubility [1]	chemical stability [2]	SMILES	logP value
water soluble		CC(/C=C/C=C(C)/C=C/C(=O)O)=C\C=C\C=C(C)\C=C\C=C(C)\C=C\C(=O)O (stereo in doubt) [norbixin, (2E,4E,6E,8E,10E,12E,14E,16E,18E)-4,8,13,17-tetramethylicosa-2,4,6,8,10,12,14,16,18-nonaenedioic acid]	
insoluble in water	chemically unstable when isolated	COC(=O)/C=C/C(C)=C\C=C\C(C)=C\C=C\C=C(C)\C=C\C=C(C)\C=C\C(=O)O [bixin, (2E,4E,6E,8E,10E,12E,14E,16Z,18E)-20-methoxy-4,8,13,17-tetramethyl-20-oxoicosa-2,4,6,8,10,12,14,16,18-nonaenoic acid]	

SMILES	solubility [1]	chemical stability [2]	logP value
C=C(C)[C@@H]1CCC(C)=C[C@H]1c1c(O)cc(CCCCC)cc1O [CBD, cannabidiol, reference compound]	insoluble in an aqueous environment		about 6.5
